Experimental data published in ChEMBL document CHEMBL1142807, “Diprolyl nitriles as potent dipeptidyl peptidase IV inhibitors” (Bioorg Med Chem Lett, 2005).

Legend:
[1] = Inhibitory activity against Dipeptidyl peptidase IV
[2] = Half Life at 37 degree C and 10 uM in pH 7.0 buffer; assay type: ADME

| Ki [1] [nM] | Structure (SMILES) | half-life at 10 µM [2] [h] |
| --- | --- | --- |
| 126 | C[C@H]1CCN[C@@H]1C(=O)N1[C@H](C#N)C[C@@H]2C[C@@H]21 | – |
| 133 | CC(C)(C)CC(=O)N[C@@H]1CN[C@H](C(=O)N2[C@H](C#N)C[C@@H]3C[C@@H]32)C1 | – |
| 37 | CC1(C)CCN[C@@H]1C(=O)N1[C@H](C#N)C[C@@H]2C[C@@H]21 | – |
| > 10000 | N#C[C@@H]1C[C@@H]2C[C@@H]2N1C(=O)[C@@H]1CCCCN1 | – |
| 57 | N#C[C@@H]1C[C@@H]2C[C@@H]2N1C(=O)[C@@H]1C[C@H](NC(=O)OCC2c3ccccc3-c3ccccc32)CN1 | – |
| > 10000 | N#C[C@@H]1C[C@@H]2C[C@@H]2N1C(=O)[C@@H]1CCN1 | – |
| 140 | CC(C)(C)OC(=O)N[C@@H]1CN[C@H](C(=O)N2[C@H](C#N)C[C@@H]3C[C@@H]32)C1 | – |
| 492 | CC(C)(C)OC(=O)NC1CN[C@H](C(=O)N2[C@H](C#N)C[C@@H]3C[C@@H]32)C1 (single isomer, unassigned) | – |
| – | N#Cc1ccc(NC2CN[C@H](C(=O)N3[C@H](C#N)C[C@@H]4C[C@@H]43)C2)cc1Cl (stereo not given in full) | 15 |
| 290 | CC[C@H]1CCN[C@@H]1C(=O)N1[C@H](C#N)C[C@@H]2C[C@@H]21 | – |
| > 10000 | N#C[C@@H]1C[C@@H]2C[C@@H]2N1C(=O)[C@H]1CCCN1 | – |
| 39 | N#C[C@@H]1C[C@@H]2C[C@@H]2N1C(=O)[C@@H]1C[C@H](NS(=O)(=O)c2ccc(Cl)cc2)CN1 | – |
| 305 | N#C[C@@H]1C[C@@H]2C[C@@H]2N1C(=O)[C@@H]1CCCN1 | – |

| Structure (SMILES) | Ki [1] [nM] | half-life at 10 µM [2] [h] |
| --- | --- | --- |
| N#C[C@@H]1C[C@@H]2C[C@@H]2N1C(=O)[C@@H]1C[C@@H]2C[C@@H]2N1 | > 10000 | – |
| N#C[C@@H]1C[C@@H]2C[C@@H]2N1C(=O)[C@H]1NC[C@@H]2C[C@@H]21 | 52 | – |
